Results published in BindingDB's records for patent WO2022070069 (JANSSEN BIOTECH, INC., 2022).

Biological target: Dihydroorotate dehydrogenase (quinone), mitochondrial (Homo sapiens, UniProt Q02127)
Experiment: DHODH enzymatic assay
Description: To detect DHODH enzyme activities, dichloroindophenol (DCIP) is added as the final electron acceptor in the assay. DCIP can accept electrons from the reduced coenzyme Q generated in the assay, or from dihydroorotate (DHO) via FMN by binding presumably to the ubiquinone pocket. DCIP solutions are blue, with an intense absorbance around 600 nm, but becomes colorless upon reduction (J. Biol. Chem. (1986) 261, 11386). The assay buffer contained […], pH 7.5, 150 mM NaCl, 0.5 mM EDTA, and 0.1% Triton X-100 in MilliQ water. Substrate consisting of 20 mM DHO, 5mM CoQ6, and 1mM DCIP in assay buffer, initiates the reaction. The assay is run in end-point mode by quenching the reaction with the potent DHODH inhibitor brequinar. Absorbance measurements were obtained using the BMG Phera Star plate-reading spectrophotomer. Purified human DHODH was purchased from Proteros (cat. No. PR-0044). Chemicals were purchased from Sigma-Aldrich, Teknova, and Avanti Polar Lipids. Liquid handling was performed using Labcyte Echo and Formulatrix Tempest.

Sequence of Dihydroorotate dehydrogenase (quinone), mitochondrial (Q02127 whole entry): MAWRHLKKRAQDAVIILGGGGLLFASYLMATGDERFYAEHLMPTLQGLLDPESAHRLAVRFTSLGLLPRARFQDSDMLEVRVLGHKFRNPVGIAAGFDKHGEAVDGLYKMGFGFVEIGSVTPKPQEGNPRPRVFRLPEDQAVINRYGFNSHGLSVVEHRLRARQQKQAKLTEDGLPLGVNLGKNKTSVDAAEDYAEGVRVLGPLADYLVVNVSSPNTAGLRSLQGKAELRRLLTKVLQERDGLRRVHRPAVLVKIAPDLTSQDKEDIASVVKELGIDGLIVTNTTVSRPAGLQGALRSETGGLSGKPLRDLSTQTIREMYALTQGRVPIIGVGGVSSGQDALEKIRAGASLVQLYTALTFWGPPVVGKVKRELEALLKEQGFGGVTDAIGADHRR

Row | SMILES | IC50 [nM]
1 | Cc1cn(-c2cc(O[C@@H](C)C(F)(F)F)c(C(=O)Nc3c(C)n[nH]c3Cl)cc2F)nc1[C@@H](C)O (relative stereo) [WO2022070069, Example 4] | 0.22
2 | Cc1cn(-c2cc(O[C@@H](C)C(F)(F)F)c(C(=O)Nc3c(F)cccc3Cl)cc2F)nc1C(C)(C)O [WO2022070069, Example 3] | 0.5
3 | Cc1cn(-c2cc(O[C@@H](C)C(F)(F)F)c(C(=O)Nc3c(F)cccc3Cl)cc2F)nc1[C@H](C)O (relative stereo) [WO2022070069, Example 2] | 0.3
4 | Cc1cn(-c2cc(O[C@@H](C)C(F)(F)F)c(C(=O)Nc3c(F)cccc3Cl)cc2F)nc1[C@@H](C)O (relative stereo) [WO2022070069, Example 1] | 0.48

Next, values leading:

Row | IC50 [nM] | SMILES
5 | 0.26 | Cc1cn(-c2cc(O[C@@H](C)C(F)(F)F)c(C(=O)Nc3c(C)n[nH]c3Cl)cc2F)nc1[C@H](C)O (relative stereo) [WO2022070069, Example 5]
6 | 0.38 | Cc1cn(-c2cc(O[C@@H](C)C(F)(F)F)c(C(=O)Nc3c(C)n[nH]c3Cl)cc2F)nc1C(C)(C)O [WO2022070069, Example 6]
